According to patent US12612403B2, “Nitrogen-containing heterocyclic derivative inhibitor, and preparation method therefor and use thereof” (SHANGHAI HANSOH BIOMEDICAL CO., LTD., priority 2024, dated 2026):

Experiments:
[1] = tested on: hyperlipidemia animal model of B6-hPCSK9 transgenic mice; test: In vivo pharmacodynamic study in hyperlipidemia model of B6-hPCSK9 transgenic mice (LDL-C, TC, plasma PCSK9); set-up: species or system B6-hPCSK9 transgenic C57 mice; conditions: PO administration, Day 14, B6-hPCSK9 transgenic mice on high-fat feed, normalized to vehicle group
Experimental: 1. Experimental objective: The compounds of the present disclosure were evaluated for in vivo pharmacodynamics in a hyperlipidemia animal model of B6-hPCSK9 transgenic mice.
2.1 Animals: B6-hPCSK9 transgenic C57 mice, 6-8 weeks old, male, purchased from Jiangsu GemPharmatech Co., Ltd.
2.2 Animal model: After delivery to a barrier system, the animals were given one week for acclimatization and began to feed on the high-fat feed. The body weight and feed weight were weighed once a week, and the body weight and food intake thereof were recorded.
2.3 Grouping and administration • a. The animals were grouped by a random grouping method. • c. According to the grouping results, administration with the test drug was started (mode of administration: oral administration; administration volume: 10 mL/kg; frequency of administration: once/day or single administration; administration cycle: 21 days; vehicle: 10% Solutol HS 15/90% Saline). Test drug: Compounds of the present disclosure, made in house. • d. After the test drug was administered, the body weight and feed weight were weighed twice a week and blood was taken once a week. • e. The data was processed with software such as Excel. […] PCSK9 in plasma was detected by ELISA.

[2] = Pharmacokinetic determination in mice (PO 5 mg/kg, IV 1 mg/kg); assay type: in vivo, C57BL/6J mice; conditions: male, C57BL/6J, mouse, plasma, C57 mice, PO administration, 5 mpk; for AUC(0-inf): read-out: Area under the curve AUC0-∞; for half-life: read-out: Half-life t1/2 (converted); for MRT: read-out: Mean residence time MRT; for Cmax: read-out: Plasma concentration Cmax; for Tmax: read-out: Time to peak tmax
Procedure, shortened: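 Fasted male C57BL/6J mice (n=3 per route) dosed PO 5 mg/kg in 10% Solutol HS15 or IV 1 mg/kg in 5% DMSO/10% Solutol HS15/85% PBS. Orbital blood sampled 0.083 (IV) to 24 h; plasma measured by LC-MS/MS, parameters by WinNonlin.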

[3] = tested on: LDLR level in HepG2 cells; test: Effect on the LDLR level in HepG2 cells (ELISA); assay type: cell-based, Human; conditions: 48 hours, LDLR in lysate by ELISA
Experimental: 1. Experimental objective: To detect the effect of the compounds on the LDLR protein level.
2. […] A self-adhesive seal was applied, the plate was placed on a plate shaker at room temperature, gently shaken, uniformly mixed, and incubated for 2 hours. • 11) The plate was placed on the plate washer, the washing liquid was set to 350 μL per well, and the plate was washed 4 times repeatedly. • 12) 200 μL of Human LDLR conjugate was added, a self-adhesive seal was applied, and the plate was placed on the plate shaker, well mixed uniformly, and incubated for 2 hours. • 13) The plate was placed on the plate washer, the washing liquid was set to 350 μL per well, and the plate was washed 4 times repeatedly. • 14) 200 μL/well of Substrate solution was added, and the plate was placed in the dark, applied with a self-adhesive seal, placed on the plate shaker, well mixed uniformly, and incubated for 20 minutes. • 15) 50 μL/well of Stop solution was added and mixed uniformly over 20 min. • 16) The optical density (OD) value in each well was measured in sequence at a wavelength of 450 nm by the microplate reader.
3. Experimental data processing method: After the OD values were read by the microplate reader, the OD value of the 0-concentration standard in the standard group was subtracted from the OD values of the standards, control group, and samples to obtain the actual OD values for these wells. […]

[4] = tested on: PCSK9 secreted by HepG2 cells; test: Effect on the concentration of PCSK9 secreted by HepG2 cells (ELISA); assay type: cell-based; conditions: Homo sapiens, 48 hours, PCSK9 in culture medium by ELISA
Procedure, shortened: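 HepG2 cells treated with compound for 48 h at 37° C., 5% CO2. Secreted PCSK9 in medium quantified by sandwich ELISA (HRP detection, OD 450 nm) against a 0–10 ng/mL standard curve. Inhibition relative to control; IC50 fitted from concentration–inhibition data.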

PCSK9 protein = target: T1, PCSK9 protein (Homo sapiens, UniProt Q8NBP7); test: Binding ability to PCSK9 protein (HTRF); conditions: PCSK9-His, Alexa Fluor 647 probe compound
T1 construct: purchased Sino biology (Sino Biological) 29698-H08H
T1 sequence (Q8NBP7 153-692): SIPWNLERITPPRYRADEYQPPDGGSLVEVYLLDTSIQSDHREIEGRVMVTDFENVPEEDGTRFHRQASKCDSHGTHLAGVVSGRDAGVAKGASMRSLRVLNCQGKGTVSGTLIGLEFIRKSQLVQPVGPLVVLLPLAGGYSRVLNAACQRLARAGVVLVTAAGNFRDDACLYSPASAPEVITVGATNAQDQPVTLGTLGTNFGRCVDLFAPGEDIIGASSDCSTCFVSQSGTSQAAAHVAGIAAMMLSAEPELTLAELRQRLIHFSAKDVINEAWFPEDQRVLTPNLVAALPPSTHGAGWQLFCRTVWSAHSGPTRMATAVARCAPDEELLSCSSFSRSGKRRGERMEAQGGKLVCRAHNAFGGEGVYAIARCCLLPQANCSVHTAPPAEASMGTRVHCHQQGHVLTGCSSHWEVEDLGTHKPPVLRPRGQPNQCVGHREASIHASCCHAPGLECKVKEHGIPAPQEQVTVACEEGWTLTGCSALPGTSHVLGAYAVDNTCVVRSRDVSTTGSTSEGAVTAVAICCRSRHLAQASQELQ
Experimental: 1. Experimental objective: To detect the action of compounds to bind PCSK9 protein by an HTRF method.
3. Experimental data processing method: Four-parameter log(inhibitor) vs. response—Variable slope (four parameters) in XLit was used to perform non-linear fitting of the compound concentration and the corresponding inhibition rate, and IC50 was calculated.

[5] = In vitro metabolic stability in human liver microsomes; assay type: in vitro ADME; conditions: pH 7.4
Experimental: 1. Experimental objective: The purpose of this experiment was to evaluate the metabolic stability of the compounds in phase I and partially phase II in mouse, rat and human liver microsomes, respectively.
2.1 Drug preparation: 10 mM stock solution of the compound of the present disclosure was prepared in DMSO (or other suitable solution) and stored in a −20° C. refrigerator for later use. The compound of the present disclosure was made in house.
2.2 Experimental steps • 1) Preparation of buffer: 4.01 mL of 1 M K2HPO4·3H2O (AR grade) and 0.99 mL of 1 M KH2PO4 (AR grade) were dissolved in ultrapure water and the volume was adjusted to 50 mL to prepare a phosphate buffer with a final concentration of 100 mM. • 2) Preparation of compound working solution: Preparation of compound working solution: 2 μL of the compound stock solution was added to 998 μL of phosphate buffer to a final concentration of 20 μM. According to the properties of the compound, the preparation proportions could be adjusted appropriately to adjust the final concentration. • 3) Preparation of liver microsome working solution: 156.3 μL of 20 mg/mL microsomes were diluted to 5 mL with 100 mM phosphate buffer, and the mixture was mixed well to reach a final concentration of 0.625 mg/mL. • 4) Preparation of NADPH and UDPGA: 33.3 mg of NADPH and 25.8 mg of UDPGA were weighed and added to 2 mL of 100 mM phosphate buffer to reach a final concentration of 20 mM. • 5) Preparation of pore-forming agent (Alamethicin): 1 mg of Alamethicin was weighed and added to 200 μL of methanol to prepare a 5 mg/mL solution. 10 μL of the solution was taken and added to 990 μL phosphate buffer (pH 7.4) to reach a final concentration of 50 μg/mL. • 6) Preparation of reaction stop solution: The internal standard was diluted with acetonitrile (or other suitable solution) to use as a stop solution and stored in a 2° C.-8° C. refrigerator. • 7) Incubation process: 400 μL of the prepared liver microsomes, 25 μL of the compound working solution (20 μM) and 25 μL of Alamethicin (50 μg/mL) were successively added to the 96-well plate, and the mixture was pre-incubated at 37° C. for 10 min. Then, 50 μL of prepared NADPH/UDPGA was added to start the reaction, and the mixture was incubated at 37° C. The total volume of the reaction system was 500 μL. The final contents of each component were as follows:
50 μL of samples were taken at 0, 5, 15, 30, 60 and 120 min, respectively, 200 μL of a cold stop solution containing the internal standard was added to stop the sample reaction, the mixture was centrifuged at 3500 rpm for 10 min, and the supernatant was taken and analyzed by LC-MS/MS.
Instruments: Shimadzu LC-20 AD; Chromatographic column: Phenomenex Gamin® C18 (50*4.6 mm, 5 μm particle size); mobile phase: A: 0.1% aqueous formic acid, B: acetonitrile; Elution gradient: 0.2-1.6 min, […], 3.0-3.1 min, 95% A to 5% A; Flow rate: 1.0 ml/min; Run time: 4.0 min; Injection volume: 5 μL.
Instruments: AP14000 liquid chromatography mass spectrometer, AB Sciex; Ion source: electrospray ionization source (ESI); Drying gas: N2, temperature 500° C.; Electrospray voltage: 5000 V; Detection mode: positive ion detection; Scanning mode: Reaction Monitoring (MRM) mode; Scanning time: 0.8401 s.
3. Data processing: The raw data were calculated according to the following formula: […]
The in vitro liver microsome intrinsic clearance rate (CLint) and liver intrinsic clearance rate (CLint,liver) were calculated by Ke.

Row | Structure (SMILES) | LDL-C change vs vehicle (%), Day 14 ([1]; 10 mpk) | AUC(0-inf) [2] | half-life [2] | MRT [2] | Cmax [2] | Tmax [2] | other results
1 | O=C1c2cccnc2CN1c1ccc(N[C@H]2CC[C@H](Nc3nc4cc(C(F)(F)F)ccn4n3)C2)nc1 [Example 12, 6-(6-(((1S,3S)-3-((7-(trifluoromethyl)-[1,2,4]triazolo[1,5-a]pyridin-2-yl)amino)cyclopentyl)amino)pyridin-3-yl)-6,7-dihydro-5H-pyrrolo[3,4-b]pyridin-5-one] | −33.75% | 9510 ng·h/mL | 2.9 h | 2.8 h | 4310 ng/mL | 0.25 h | 
2 | O=C1c2ncncc2CN1c1ccc(N[C@H]2CC[C@H](Nc3nc4cc(F)ccn4n3)C2)nc1 [Example 21, 6-(6-(((1S,3S)-3-((7-fluoro-[1,2,4]triazolo[1,5-a]pyridin-2-yl)amino)cyclopentyl)amino)pyridin-3-yl)-5,6-dihydro-7H-pyrrolo[3,4-d]pyrimidin-7-one] |  |  |  |  |  |  | LDLR expression level [3]: 135%
3 | O=C1c2ncccc2CN1c1cnc(N[C@H]2CC[C@H](Nc3nc4cc(C(F)(F)F)ccn4n3)C2)c(F)c1 [Example 112, 6-(5-fluoro-6-(((1S,3S)-3-((7-(trifluoromethyl)-[1,2,4]triazolo[1,5-a]pyridin-2-yl)amino)cyclopentyl)amino)pyridin-3-yl)-5,6-dihydro-7H-pyrrolo[3,4-b]pyridin-7-one] | −38.14% | 33800 ng·h/mL | 2.2 h | 4.7 h | 5070 ng/mL | 1 h | IC50 [4]: 6900 nM; IC50 (PCSK9 protein): 8.3 nM
4 | O=C1c2ncc(F)cc2CN1c1cnc(N[C@H]2CC[C@H](Nc3nc4cc(OC(F)F)ccn4n3)C2)c(F)c1 [Example 154] | −35.66% | 13300 ng·h/mL | 2.5 h | 3.7 h | 2640 ng/mL | 1 h | IC50 [4]: 5500 nM
5 | O=c1ccccn1-c1cnc(N[C@H]2CC[C@H](Nc3nc4cc(F)ccn4n3)C2)c(F)c1 [Example 186, 5′-fluoro-6′-(((1S,3S)-3-((7-fluoro-[1,2,4]triazolo[1,5-a]pyridin-2-yl)amino)cyclopentyl)amino)-2H-[1,3′-bipyridine]-2-one] | −51.19% |  |  |  |  |  | half-life at 1 µM [5]: 35.4 h; microsomal CLint at 1 µM [5]: 0.7 µL/min/mg; IC50 (PCSK9 protein): 8.5 nM
6 | O=c1nc(O)ccn1-c1cnc(N[C@H]2CC[C@H](Nc3nc4cc(F)ccn4n3)C2)c(F)c1 [Example 188] | −47.11% |  |  |  |  |  | half-life at 1 µM [5]: 12.6 h; microsomal CLint at 1 µM [5]: 1.8 µL/min/mg
7 | O=C1c2ccnn2CCN1c1cnc(N[C@H]2CC[C@H](Nc3nc4cc(F)ccn4n3)C2)c(F)c1 [Example 201] | −31.45% |  |  |  |  |  | 
8 | O=C1c2ccnn2CCN1c1cnc(N[C@H]2CC[C@H](Nc3nc4cc(C(F)(F)F)ccn4n3)C2)c(F)c1 [Example 212] | −60.08% |  |  |  |  |  | 
9 | O=c1ccccn1-c1ccc(N[C@H]2CC[C@H](Nc3nc4cc(F)ccn4n3)C2)nc1 [compound 1, 6′-(((1S,3S)-3-((7-fluoro-[1,2,4]triazolo[1,5-a]pyridin-2-yl)amino)cyclopentyl)amino)-2H-[1,3′-bipyridine]-2-one, reference compound] |  |  |  |  |  |  | LDL-C change vs vehicle (%), Day 14 ([1]; 6 mpk): −31.52%
